Here are results for 21 compounds from PubChem BioAssay AID248 (DTP/NCI, 2004).

“And” between values parts separate entries of the source, which are not always exact repeats. Equal entries are not always repeated. Toxic doses and inconclusive results are not listed.

The assay relates to L1210 leukemia ip in BDF1 mice, survival T/C. The assay is described as follows: NCI In Vivo Anticancer Drug Screen. Data for tumor model L1210 Leukemia (intraperitoneal) in B6D2F1 (BDF1) mice. As to conditions: endpoint: mean survival time, higher = longer survival. The procedure, abridged:
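Tumor was transplanted into mice, which were then dosed with test compound or vehicle alone. Survival was recorded for each group, and the treated figure was expressed relative to the control figure.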

Where [1] appears, read: dose: 100.0 mg/kg/injection, schedule: Q01DX001 (ip), vehicle: other.
Setting [2] is: dose: 100.0 mg/kg/injection, schedule: Q01DX009 (ip), vehicle: Klucel (hydroxypropylcellulose) (HPC).
The mark [3] stands for this setting: dose: 100.0 mg/kg/injection, schedule: Q04DX003 (ip), vehicle: Klucel (hydroxypropylcellulose) (HPC).
Setting [4] is: dose: 200.0 mg/kg/injection, schedule: Q01DX009 (ip), vehicle: Klucel (hydroxypropylcellulose) (HPC).
Setting [5] is: dose: 200.0 mg/kg/injection, schedule: Q04DX003 (ip), vehicle: Klucel (hydroxypropylcellulose) (HPC).
Setting [6] is: dose: 400.0 mg/kg/injection, schedule: Q01DX009 (ip), vehicle: Klucel (hydroxypropylcellulose) (HPC).
Where [7] appears, read: dose: 400.0 mg/kg/injection, schedule: Q04DX003 (ip), vehicle: Klucel (hydroxypropylcellulose) (HPC).
Setting [8] is: dose: 100.0 mg/kg/injection, schedule: Q01DX001 (ip), vehicle: carboxymethylcellulose (CMC).
[9] abbreviates: dose: 400.0 mg/kg/injection, schedule: Q01DX001 (ip), vehicle: carboxymethylcellulose (CMC).
[10] abbreviates: dose: 100.0 mg/kg/injection, schedule: Q01DX001 (ip), vehicle: saline.
[11] abbreviates: dose: 200.0 mg/kg/injection, schedule: Q01DX001 (ip), vehicle: saline.
The mark [12] stands for this setting: dose: 400.0 mg/kg/injection, schedule: Q01DX001 (ip), vehicle: saline.
[13] abbreviates: dose: 100.0 mg/kg/injection, schedule: Q01DX001 (ip), vehicle: Klucel (hydroxypropylcellulose) (HPC).
Setting [14] is: dose: 200.0 mg/kg/injection, schedule: Q01DX001 (ip), vehicle: Klucel (hydroxypropylcellulose) (HPC).
Where [15] appears, read: dose: 400.0 mg/kg/injection, schedule: Q01DX001 (ip), vehicle: Klucel (hydroxypropylcellulose) (HPC).
The mark [16] stands for this setting: dose: 100.0 mg/kg/injection, schedule: Q04DX002 (ip), vehicle: Klucel (hydroxypropylcellulose) (HPC).
[17] abbreviates: dose: 200.0 mg/kg/injection, schedule: Q04DX002 (ip), vehicle: Klucel (hydroxypropylcellulose) (HPC).
[18] abbreviates: dose: 400.0 mg/kg/injection, schedule: Q04DX002 (ip), vehicle: Klucel (hydroxypropylcellulose) (HPC).

As to `OC(c1ccccc1)(c1ccccc1)C1CC1c1ccncc1` (stereo not drawn), the T/C is, setting by setting: (dose: 25.0 mg/kg/injection, schedule: Q04DX003 (ip), vehicle: saline) 107 % of control; (dose: 50.0 mg/kg/injection, schedule: Q04DX003 (ip), vehicle: saline) 104 % of control; (dose: 100.0 mg/kg/injection, schedule: Q04DX003 (ip), vehicle: saline) 98 % of control; (dose: 200.0 mg/kg/injection, schedule: Q04DX003 (ip), vehicle: saline) 98 % of control; (dose: 400.0 mg/kg/injection, schedule: Q04DX003 (ip), vehicle: saline) 91 % of control.

`C(=N\n1cnc2c(SCc3ccccc3)ncnc21)/c1ccccc1`: the T/C under setting [1] was 93 % of control; the T/C (dose: 200.0 mg/kg/injection, schedule: Q01DX001 (ip), vehicle: other) is 91 % of control; the T/C (dose: 400.0 mg/kg/injection, schedule: Q01DX001 (ip), vehicle: other) is 91 % of control.

In the case of `CC(C)=C1C2C=CC1C(CO)C2CO` (stereo not drawn), the T/C by setting is: under setting [2], 106 % of control; under setting [3], 105 % of control; under setting [4], 91 % of control; under setting [5], 114 % of control; under setting [6], 102 % of control; under setting [7], 102 % of control.

On to `C1=CC(c2ccccc2)=C(c2ccccc2)C(c2ccccc2)C(c2ccccc2)=C1` (stereo not drawn), for which the T/C runs as follows: (dose: 50.0 mg/kg/injection, schedule: Q01DX001 (ip), vehicle: carboxymethylcellulose (CMC)) 94 % of control; under setting [8], 96 % of control; (dose: 200.0 mg/kg/injection, schedule: Q01DX001 (ip), vehicle: carboxymethylcellulose (CMC)) 96 % of control; under setting [9], 89 % of control.

Take `C#CC1(NC(c2cc(Cl)cc(Cl)c2O)P(=O)(c2ccccc2)c2ccccc2)CCCCC1` (stereo not drawn): the T/C under setting [2] was 94 % of control and the T/C under setting [4] is 102 % of control.

With `CCOC(=O)C(Cc1ccc(N(CCCl)CCCl)cc1)NP1(=O)NCCCO1` (stereo not drawn), the T/C (dose: 2.0 mg/kg/injection, schedule: Q01DX015 (ip), vehicle: carboxymethylcellulose (CMC)) is 123 % of control; the T/C (dose: 14.0 mg/kg/injection, schedule: Q01DX015 (ip), vehicle: carboxymethylcellulose (CMC)) was 92 % of control; the T/C (dose: 18.0 mg/kg/injection, schedule: Q01DX015 (ip), vehicle: other) is 167 % of control; the T/C (dose: 28.14 mg/kg/injection, schedule: Q01DX015 (ip), vehicle: carboxymethylcellulose (CMC)) was 117 % of control; the T/C (dose: 30.0 mg/kg/injection, schedule: Q01DX015 (ip), vehicle: other) was 156 % of control; the T/C (dose: 48.0 mg/kg/injection, schedule: Q01DX015 (ip), vehicle: carboxymethylcellulose (CMC)) is 94 % of control. The T/C is 109 % of control (dose: 50.0 mg/kg/injection, schedule: Q01DX015 (ip), vehicle: other); 111 % of control under setting [8]; 160 % of control under setting [1]; 115 % of control under setting [9].

Consider `CCOc1ccc(C(=O)OCCCl)cc1`, for which the T/C (dose: 100.0 mg/kg/injection, schedule: Q04DX003 (ip), vehicle: saline with Tween-80) was 110 % of control; the T/C (dose: 200.0 mg/kg/injection, schedule: Q04DX003 (ip), vehicle: saline with Tween-80) is 109 % of control; the T/C (dose: 400.0 mg/kg/injection, schedule: Q04DX003 (ip), vehicle: saline with Tween-80) is 109 % of control.

With `O=S(=O)(O)c1ccc(CCCCCCCl)cc1`, the T/C by setting is: (dose: 100.0 mg/kg/injection, schedule: Q04DX002 (ip), vehicle: saline) 93 % of control; (dose: 200.0 mg/kg/injection, schedule: Q04DX002 (ip), vehicle: saline) 87 % of control.

Regarding `Cc1cccc2cc3cccc(C)[n+]3cc12`, the T/C was 100 % of control (dose: 5.0 mg/kg/injection, schedule: Q01DX001 (ip), vehicle: other); 97 % of control (dose: 10.0 mg/kg/injection, schedule: Q01DX001 (ip), vehicle: other); 100 % of control (dose: 20.0 mg/kg/injection, schedule: Q01DX001 (ip), vehicle: other).

As to `Oc1ccc(Br)c2cccnc12`, the T/C is, setting by setting: (dose: 50.0 mg/kg/injection, schedule: Q01DX001 (ip), vehicle: saline) 100 % of control; under setting [10], 103 % of control; under setting [11], 103 % of control; under setting [12], 100 % of control.

As to `O=P1(c2ccccc2)CCc2[nH]c3ccc(Br)cc3c2C1` (stereo not drawn), the T/C was 97 % of control under setting [13], 93 % of control under setting [14] and 98 % of control under setting [15].

With `CC(NC(=O)C(NC(=O)c1cnc2ccccc2n1)C(C)C)C(=O)O` (stereo not drawn), the T/C under setting [10] is 94 % of control; the T/C (dose: 100.0 mg/kg/injection, schedule: Q04DX003 (ip), vehicle: acetone) was 99 % of control; the T/C under setting [11] was 104 % of control; the T/C (dose: 200.0 mg/kg/injection, schedule: Q04DX003 (ip), vehicle: acetone) was 103 % of control; the T/C under setting [12] was 96 % of control; the T/C (dose: 400.0 mg/kg/injection, schedule: Q04DX003 (ip), vehicle: acetone) is 99 % of control.

Regarding `CCCCCCCCCCCCCCCCCCNC(=O)N(C)C1CCCCC1`, the T/C is 88 % of control under setting [2], 89 % of control under setting [4] and 101 % of control under setting [6].

With `c1ccc([P+](c2ccccc2)(c2ccccc2)c2ccc(-c3ccc([P+](c4ccccc4)(c4ccccc4)c4ccccc4)cc3)cc2)cc1`, the T/C runs as follows: (dose: 1.25 mg/kg/injection, schedule: Q01DX009 (ip), vehicle: Klucel (hydroxypropylcellulose) (HPC)) 102 % of control; (dose: 3.5 mg/kg/injection, schedule: Q01DX009 (ip), vehicle: Klucel (hydroxypropylcellulose) (HPC)) 105 % of control.

As to `COc1ccc(O)cc1C`, the T/C is 104 % of control (dose: 100.0 mg/kg/injection, schedule: Q04DX003 (ip), vehicle: other); 107 % of control (dose: 200.0 mg/kg/injection, schedule: Q04DX003 (ip), vehicle: other); 117 % of control (dose: 400.0 mg/kg/injection, schedule: Q04DX003 (ip), vehicle: other).

As to `COC1OC(CBr)C(OC(C)=O)C(OC(C)=O)C1OS(C)(=O)=O` (stereo not drawn), the T/C is 100 % of control under setting [16], 97 % of control under setting [17] and 103 % of control under setting [18].

As to `CC(=O)NC(Cc1ccsc1)(C(=O)O)C(=O)O`, the T/C under setting [10] is 93 % of control, the T/C under setting [11] is 98 % of control and the T/C under setting [12] is 98 % of control.

Turning to `OCC1OC(n2ccc3c([Se])ncnc32)C(O)C1O` (stereo not drawn), the T/C reads like this: (dose: 12.5 mg/kg/injection, schedule: Q01DX005 (ip), vehicle: saline) 119 % of control; (dose: 25.0 mg/kg/injection, schedule: Q01DX005 (ip), vehicle: saline) 122 % of control; (dose: 50.0 mg/kg/injection, schedule: Q01DX005 (ip), vehicle: saline) 115 % of control; (dose: 100.0 mg/kg/injection, schedule: Q01DX005 (ip), vehicle: saline) 122 % of control.

Consider `O=C(NCCCl)NC1CCc2ccccc2C1` (stereo not drawn), for which the T/C under setting [3] is 93 % of control, the T/C under setting [5] was 88 % of control and the T/C under setting [7] was 89 % of control.

Turning to `COc1ccc(NC(=O)Nc2onc(C)c2C)c(Cl)c1`, the T/C is 95 % of control under setting [13]; 94 % of control and 100 % of control under setting [2]; 101 % of control under setting [16]; 87 % of control under setting [3]; 97 % of control under setting [14]; 95 % of control and 88 % of control under setting [4]. Also, the T/C runs as follows: under setting [17], 95 % of control and 101 % of control; under setting [5], 97 % of control; under setting [15], 104 % of control; under setting [6], 93 % of control and 95 % of control; under setting [18], 96 % of control; under setting [7], 88 % of control. Moreover, under “dose: 4000.0 mg/kg/injection, schedule: Q04DX002 (ip), vehicle: Klucel (hydroxypropylcellulose) (HPC)”, the T/C was 90 % of control.

For `COC(=O)C(CCc1cc(OC)c(OC)c(OC)c1)C(C(=O)OC)C(=O)OC` (stereo not drawn), the T/C is, setting by setting: under setting [3], 87 % of control; under setting [5], 94 % of control; under setting [7], 89 % of control.
